Assay results as given in ChEMBL document CHEMBL3885881, “DrugMatrix”.

Species on record: Rattus norvegicus
Test: DrugMatrix - Regimen: Daily Repeat
Assay type: toxicity, organism-based, Sprague-Dawley
Design: regimen Daily Repeat, gender Male, age 6-8 weeks
Conditions: in vivo, po, route oral GAVAGE, vehicle 100 % WATER; for BASOPHIL / EOSINOPHIL / ERYTHROCYTE COUNT / HEMATOCRIT / HEMOGLOBIN / LEUKOCYTE COUNT / LYMPHOCYTE / MEAN CORPUSCULAR HEMOGLOBIN / MEAN CORPUSCULAR HEMOGLOBIN CONCENTRATION / MEAN CORPUSCULAR VOLUME / MONOCYTE / NEUTROPHIL / PLATELET COUNT: tissue Blood; for ALANINE AMINOTRANSFERASE / ALBUMIN / ALKALINE PHOSPHATASE / ASPARTATE AMINOTRANSFERASE / BLOOD UREA NITROGEN / CARBON DIOXIDE / CHLORIDE / CHOLESTEROL / CREATINE PHOSPHOKINASE / CREATININE / GLUCOSE / LACTATE DEHYDROGENASE / LIPASE / PHOSPHORUS / POTASSIUM / SODIUM / TOTAL BILIRUBIN / TOTAL PROTEIN / URIC ACID: tissue Plasma
[1] = 0 mg/kg, 96 h, dose level Control, time 4 day
[2] = 0 mg/kg, […], dose level Control, time 6 day
[3] = 0 mg/kg, […], dose level Control, time 14 day
[4] = 4000 mg/kg, 96 h, dose level High, time 4 day
[5] = 4000 mg/kg, […], dose level High, time 6 day
[6] = 4000 mg/kg, […], dose level High, time 14 day

CC(C)=O [ACETONE]
BASOPHIL [1]: 0.47% | EOSINOPHIL [1]: 0.58% | ERYTHROCYTE COUNT [1]: 6.84 x10E6/uL | HEMATOCRIT [1]: 44.27% | HEMOGLOBIN [1]: 14.08 G/DL | LEUKOCYTE COUNT [1]: 13.39 x10E3/uL | LYMPHOCYTE [1]: 83.57% | MEAN CORPUSCULAR HEMOGLOBIN [1]: 20.57 pg | MEAN CORPUSCULAR HEMOGLOBIN CONCENTRATION [1]: 31.77 G/DL | MEAN CORPUSCULAR VOLUME [1]: 64.68 fL | MONOCYTE [1]: 1.92% | NEUTROPHIL [1]: 12.95% | PLATELET COUNT [1]: 1533.67 x10E3/uL | ALANINE AMINOTRANSFERASE [1]: 28.17 u/L | ALBUMIN [1]: 3.82 G/DL | ALKALINE PHOSPHATASE [1]: 354.33 u/L | ASPARTATE AMINOTRANSFERASE [1]: 73.83 u/L | BLOOD UREA NITROGEN [1]: 16 mg/dL | CARBON DIOXIDE [1]: 27.17 mmol/L | CHLORIDE [1]: 104.83 MEQ/L | CHOLESTEROL [1]: 83.33 mg/dL | CREATINE PHOSPHOKINASE [1]: 288 u/L | CREATININE [1]: 0.33 mg/dL | GLUCOSE [1]: 181.33 mg/dL | LACTATE DEHYDROGENASE [1]: 173.17 u/L | LIPASE [1]: 17.67 u/L | PHOSPHORUS [1]: 11.5 mg/dL | POTASSIUM [1]: 6.8 MEQ/L | SODIUM [1]: 147 MEQ/L | TOTAL BILIRUBIN [1]: 0.35 mg/dL | TOTAL PROTEIN [1]: 6.35 G/DL | URIC ACID [1]: 1.55 mg/dL | BASOPHIL [2]: 0.33% | EOSINOPHIL [2]: 0.85% | ERYTHROCYTE COUNT [2]: 6.98 x10E6/uL | HEMATOCRIT [2]: 38.58% | HEMOGLOBIN [2]: 14.25 G/DL | LEUKOCYTE COUNT [2]: 11.01 x10E3/uL | LYMPHOCYTE [2]: 85.07% | MEAN CORPUSCULAR HEMOGLOBIN [2]: 20.47 pg | MEAN CORPUSCULAR HEMOGLOBIN CONCENTRATION [2]: 31.45 G/DL | MEAN CORPUSCULAR VOLUME [2]: 64.9 fL | MONOCYTE [2]: 1.9% | NEUTROPHIL [2]: 11.42% | PLATELET COUNT [2]: 1289.67 x10E3/uL | BASOPHIL [3]: 0.52% | EOSINOPHIL [3]: 0.55% | ERYTHROCYTE COUNT [3]: 7.72 x10E6/uL | HEMATOCRIT [3]: 51.87% | HEMOGLOBIN [3]: 15.32 G/DL | LEUKOCYTE COUNT [3]: 16.2 x10E3/uL | LYMPHOCYTE [3]: 85.13% | MEAN CORPUSCULAR HEMOGLOBIN [3]: 19.85 pg | MEAN CORPUSCULAR HEMOGLOBIN CONCENTRATION [3]: 29.52 G/DL | MEAN CORPUSCULAR VOLUME [3]: 67.17 fL | MONOCYTE [3]: 1.7% | NEUTROPHIL [3]: 11.6% | PLATELET COUNT [3]: 1104.17 x10E3/uL | ALANINE AMINOTRANSFERASE [2]: 28.17 u/L | ALBUMIN [2]: 3.78 G/DL | ALKALINE PHOSPHATASE [2]: 385.33 u/L | ASPARTATE AMINOTRANSFERASE [2]: 78 u/L | BLOOD UREA NITROGEN [2]: 16.83 mg/dL | CARBON DIOXIDE [2]: 26.67 mmol/L | CHLORIDE [2]: 106.83 MEQ/L | CHOLESTEROL [2]: 82.67 mg/dL | CREATINE PHOSPHOKINASE [2]: 225.5 u/L | CREATININE [2]: 0.27 mg/dL | GLUCOSE [2]: 179.5 mg/dL | LACTATE DEHYDROGENASE [2]: 98.33 u/L | LIPASE [2]: 14.67 u/L | PHOSPHORUS [2]: 12.28 mg/dL | POTASSIUM [2]: 7.03 MEQ/L | SODIUM [2]: 150.33 MEQ/L | TOTAL BILIRUBIN [2]: 0.38 mg/dL | TOTAL PROTEIN [2]: 6.45 G/DL | URIC ACID [2]: 1.6 mg/dL | ALANINE AMINOTRANSFERASE [3]: 37 u/L | ALBUMIN [3]: 4.13 G/DL | ALKALINE PHOSPHATASE [3]: 342 u/L | ASPARTATE AMINOTRANSFERASE [3]: 71 u/L | BLOOD UREA NITROGEN [3]: 16.5 mg/dL | CARBON DIOXIDE [3]: 28.17 mmol/L | CHLORIDE [3]: 104 MEQ/L | CHOLESTEROL [3]: 70.67 mg/dL | CREATINE PHOSPHOKINASE [3]: 287.67 u/L | CREATININE [3]: 0.38 mg/dL | GLUCOSE [3]: 150.17 mg/dL | LACTATE DEHYDROGENASE [3]: 81.33 u/L | LIPASE [3]: 16 u/L | PHOSPHORUS [3]: 11.32 mg/dL | POTASSIUM [3]: 6.22 MEQ/L | SODIUM [3]: 147.33 MEQ/L | TOTAL BILIRUBIN [3]: 0.43 mg/dL | TOTAL PROTEIN [3]: 6.55 G/DL | URIC ACID [3]: 1.38 mg/dL | BASOPHIL [4]: 0.37% | EOSINOPHIL [4]: 0.2% | ERYTHROCYTE COUNT [4]: 7.37 x10E6/uL | HEMATOCRIT [4]: 47.5% | HEMOGLOBIN [4]: 15.37 G/DL | LEUKOCYTE COUNT [4]: 10.01 x10E3/uL | LYMPHOCYTE [4]: 77.97% | MEAN CORPUSCULAR HEMOGLOBIN [4]: 20.83 pg | MEAN CORPUSCULAR HEMOGLOBIN CONCENTRATION [4]: 32.37 G/DL | MEAN CORPUSCULAR VOLUME [4]: 64.47 fL | MONOCYTE [4]: 2.73% | NEUTROPHIL [4]: 18.23% | PLATELET COUNT [4]: 1486.67 x10E3/uL | ALANINE AMINOTRANSFERASE [4]: 47 u/L | ALBUMIN [4]: 3.73 G/DL | ALKALINE PHOSPHATASE [4]: 277.67 u/L | ASPARTATE AMINOTRANSFERASE [4]: 87.33 u/L | BLOOD UREA NITROGEN [4]: 12.67 mg/dL | CARBON DIOXIDE [4]: 30.67 mmol/L | CHLORIDE [4]: 103.33 MEQ/L | CHOLESTEROL [4]: 117.33 mg/dL | CREATINE PHOSPHOKINASE [4]: 390.33 u/L | CREATININE [4]: 0.53 mg/dL | GLUCOSE [4]: 176.33 mg/dL | LACTATE DEHYDROGENASE [4]: 159 u/L | LIPASE [4]: 27 u/L | PHOSPHORUS [4]: 11 mg/dL | POTASSIUM [4]: 5.6 MEQ/L | SODIUM [4]: 149 MEQ/L | TOTAL BILIRUBIN [4]: 0.27 mg/dL | TOTAL PROTEIN [4]: 6.37 G/DL | URIC ACID [4]: 1.23 mg/dL | BASOPHIL [5]: 0.23% | EOSINOPHIL [5]: 0.27% | ERYTHROCYTE COUNT [5]: 7.31 x10E6/uL | HEMATOCRIT [5]: 47.27% | HEMOGLOBIN [5]: 14.77 G/DL | LEUKOCYTE COUNT [5]: 10.16 x10E3/uL | LYMPHOCYTE [5]: 86.07% | MEAN CORPUSCULAR HEMOGLOBIN [5]: 20.17 pg | MEAN CORPUSCULAR HEMOGLOBIN CONCENTRATION [5]: 31.23 G/DL | MEAN CORPUSCULAR VOLUME [5]: 64.67 fL | MONOCYTE [5]: 2.77% | NEUTROPHIL [5]: 9.93% | PLATELET COUNT [5]: 1168.67 x10E3/uL | BASOPHIL [6]: 0.3% | EOSINOPHIL [6]: 0.38% | ERYTHROCYTE COUNT [6]: 8.11 x10E6/uL | HEMATOCRIT [6]: 55.22% | HEMOGLOBIN [6]: 16.28 G/DL | LEUKOCYTE COUNT [6]: 7.38 x10E3/uL | LYMPHOCYTE [6]: 78.4% | MEAN CORPUSCULAR HEMOGLOBIN [6]: 20.06 pg | MEAN CORPUSCULAR HEMOGLOBIN CONCENTRATION [6]: 29.48 G/DL | MEAN CORPUSCULAR VOLUME [6]: 68.1 fL | MONOCYTE [6]: 2.1% | NEUTROPHIL [6]: 18.48% | PLATELET COUNT [6]: 1123.2 x10E3/uL | ALANINE AMINOTRANSFERASE [5]: 59.33 u/L | ALBUMIN [5]: 3.83 G/DL | ALKALINE PHOSPHATASE [5]: 274 u/L | ASPARTATE AMINOTRANSFERASE [5]: 91.33 u/L | BLOOD UREA NITROGEN [5]: 17.33 mg/dL | CARBON DIOXIDE [5]: 27.67 mmol/L | CHLORIDE [5]: 107 MEQ/L | CHOLESTEROL [5]: 112 mg/dL | CREATINE PHOSPHOKINASE [5]: 187.67 u/L | CREATININE [5]: 0.37 mg/dL | GLUCOSE [5]: 172.33 mg/dL | LACTATE DEHYDROGENASE [5]: 78 u/L | LIPASE [5]: 11.33 u/L | PHOSPHORUS [5]: 12.07 mg/dL | POTASSIUM [5]: 6.83 MEQ/L | SODIUM [5]: 152 MEQ/L | TOTAL BILIRUBIN [5]: 0.33 mg/dL | TOTAL PROTEIN [5]: 6.57 G/DL | URIC ACID [5]: 1.5 mg/dL | ALANINE AMINOTRANSFERASE [6]: 84.2 u/L | ALBUMIN [6]: 4.12 G/DL | ALKALINE PHOSPHATASE [6]: 230.4 u/L | ASPARTATE AMINOTRANSFERASE [6]: 95.6 u/L | BLOOD UREA NITROGEN [6]: 15.2 mg/dL | CARBON DIOXIDE [6]: 30.6 mmol/L | CHLORIDE [6]: 104 MEQ/L | CHOLESTEROL [6]: 129.2 mg/dL | CREATINE PHOSPHOKINASE [6]: 256 u/L | CREATININE [6]: 0.54 mg/dL | GLUCOSE [6]: 144.8 mg/dL | LACTATE DEHYDROGENASE [6]: 59 u/L | LIPASE [6]: 22.2 u/L | PHOSPHORUS [6]: 11.14 mg/dL | POTASSIUM [6]: 6.2 MEQ/L | SODIUM [6]: 149.8 MEQ/L | TOTAL BILIRUBIN [6]: 0.42 mg/dL | TOTAL PROTEIN [6]: 6.66 G/DL | URIC ACID [6]: 1.5 mg/dL
